Results taken from patent publication US20090325952A1, “PYRAZOLO[3,4-B]PYRIDINE COMPOUNDS, AND THEIR USE AS PDE4 INHIBITORS” (Glaxo Group Limited, priority 2006, published 2009).
Counter-ions that a name gives are not always drawn.

Legend:
[1] = test system: atopic dermatitis patients; settings: cited from earlier work
[2] = test system: LPS-induced nasal neutrophilia in rats; test: In Vivo Assay 2: LPS induced nasal neutrophilia in rats, intranasal administration; set-up: species or system rat; settings: for inhibition (arithmetic mean) of LPS-induced nasal neutrophilia: rats, i.n. aqueous solution, about 30 minutes prior to LPS
From the text: This assay is an animal model of acute inflammation in the nose—specifically neutrophilia induced by lipopolysaccharide (LPS)— and allows the study of putative inhibition of such neutrophilia (anti-inflammatory effect) by an intranasally (i.n.) administered PDE4 inhibitor (“drug”). The PDE4 inhibitor is preferably in the form of an aqueous suspension or aqueous solution. Bolus, i.n. administration allows topical delivery to the nose.
Animals: Male CD rats (Sprague Dawley derived), weighing between 300-350 g are supplied by Charles River, UK and transported to the test site. On arrival at the test site, the animals are housed in groups of 4 or 5 per cage and complete a minimum acclimatisation period of 7 days. The animals are housed in solid bottomed cages using grade 8 sawdust. The bedding and nesting materials are changed 3 times per week. Diet comprises SDS diet R1 pelleted food given ad lib. Pasteurised animal grade drinking water is supplied and changed daily.
Lipopolysaccharide (Serotype: 0127:B8, e.g. available from Sigma, UK; e.g. L3129 prepared by phenol extraction) is used for all studies and is dissolved in phosphate-buffered saline (PBS).
Tween 80™ (e.g. available from Sigma e.g. 023K 01575). A mixture of 0.2% Tween 80™ in phosphate buffered saline (PBS) is prepared as vehicle for solution compositions. The Sigma catalogue 2004-2005 and The Handbook of Pharmaceutical Excipients (HPE) 4th edition 2003 pp. 479-483 define Tween 80™ as a brand of polysorbate 80 (according to HPE, polysorbate 80 is also named polyoxyethylene 20 sorbitan monooleate, i.e. having been copolymerised with about 20 moles of ethylene oxide for each mole of sorbitol and/or sorbitol anhydrides used).
The PDE4 inhibitor compound or salt of the invention (“drug”) is preferably used in size-reduced (e.g. micronised) form, for example according to the Micronisation Example(s) disclosed herein.
A solution of compound (0.7 mg/ml) is generally prepared by adding 0.2% Tween 80™ in phosphate buffered saline (PBS) to a pre-weighed micronised sample of the drug. The solution composition is sonicated, e.g. for approximately 2 min, and is observed to be a solution (if it is a solution) by visual assessment. A fixed volume of 50 microlitres (25 microlitres into each nostril) of either the drug-containing solution composition or a saline/Tween 80™ vehicle is administered to all animals. Each animal weighs, on average, 350 g. To achieve a dose of 100 μg/kg (100 ug/kg), each animal receives a total of 35 μg (35 ug) of the drug. The dose volume is 50 microlitres (25 microlitres to each nostril), and therefore a concentration of 35 μg (ug) per 50 microlitres (0.7 mg/ml) is prepared. To achieve lower dose concentrations, serial dilutions are prepared in saline/Tween 80™
Intranasal dosing with the PDE4 inhibitor (drug): Rats are anaesthetised by placing the animals in a sealed Perspex chamber and exposing them to a gaseous mixture of isofluorane (5%), nitrous oxide (2 L/min) and oxygen (1 L/min). Once anaesthetised, the animals are i.n. dosed with vehicle or PDE4 inhibitor aqueous compositions using a 10-100-microlitre-range Gilson pipette and plastic disposable tip. A volume of 25 microlitres is administered into each nostril by carefully inserting the pipette tip into the nostril and dispensing the required volume. When the dosing procedure is completed, the animal is returned to the cage and observed at regular intervals until it had recovered from the effects of the anaesthetic. […]

[3] = test system: LPS-induced pulmonary neutrophilia in rats; test: In Vivo Assay 1: LPS induced pulmonary neutrophilia in rats, intratracheal administration; set-up: species or system rat; settings: rats, i.t. dry powder blended in lactose; for arithmetic mean inhibition of LPS-induced pulmonary neutrophilia: about 2 hours prior to LPS
From the text: This assay is an animal model of acute inflammation in the lung—specifically neutrophilia induced by lipopolysaccharide (LPS)—and allows the study of putative inhibition of such neutrophilia (anti-inflammatory effect) by an intratracheally (i.t.) administered PDE4 inhibitor (“drug”). The PDE4 inhibitors are suitably in dry powder, aqueous solution or aqueous suspension form. I.t. administration is one model of inhaled administration, allowing topical delivery to the lung.
Animals: Male CD (Sprague Dawley Derived) rats supplied by Charles River, United Kingdom are housed in groups of 5 rats per cage, acclimatised after delivery for at least 7 days with bedding/nesting material regularly changed, fed on SDS diet R1 pelleted food given ad lib, and supplied with daily-changed pasteurised animal grade drinking water.
Device for dry powder administration: For these studies, a Penn Century DP-4 dry powder intratracheal (i.t.) delivery device (insufflator) is used for administration of a dry powder blend of vehicle (inhalation grade lactose) and the PDE4 inhibitor compound or salt of the invention (“drug”). Each device is numbered and the sample loading chamber is unscrewed from the main device and weighed. The i.t. delivery needle is also weighed. The drug+lactose blend or inhalation grade lactose (vehicle control) is then added to the sample chamber and this is then re-weighed. The sample chamber is fitted back on to the main device to prevent any drug being lost. This procedure is repeated for all of the Penn century devices to be used in the study (one separate device for each animal). After dosing to the animals, the sample chambers and needles are re-weighed in order to determine the amount of sample that was expelled from the device.
Device for aqueous solution administration: A blunt dosing needle, whose forward end is slightly angled to the needle axis, is used, with a flexible plastic portex canula inserted into the needle. The portex cannula is inserted into the lumen of the blunt stainless steel dosing needle and this is carefully inserted into the back of the animal's throat and into the trachea via the larynx. A known volume (200 microlitres) of the vehicle (0.2% Tween 80™ in saline) or of the solution (or suspension) drug composition is administered into the trachea using a plastic syringe that is attached to the portex cannula and dosing needle. A new internal cannula is used for each different drug group. After dosing, the needle is removed from the trachea and the animals are removed from the table and continually observed until they recover from the effects of anaesthesia. The animals are then returned to the holding cages and given free access to food and water, and are observed and any unusual behavioural changes noted. (Aqueous suspensions can be handled generally similarly.)
Drugs and Materials: Lipopolysaccharide (LPS) (Serotype:0127:B8, e.g. from Sigma, UK; e.g. L3129 prepared by phenol extraction) is dissolved in phosphate-buffered saline (PBS).
For dry powder, aqueous solution or aqueous suspension administration, PDE4 inhibitors are preferably used in size-reduced (e.g. micronised) form, for example according to the Micronisation Example(s) disclosed herein.
For dry powder administration of the drug, the PDE4 inhibitor compound or salt of the invention (drug) is administered as a dry powder blended with inhalation-grade (respiratory-grade) lactose, i.e. as a dry powder composition. The target quantity of dry powder composition administered i.t. to each animal is 2 mg. This remains constant throughout the studies. To achieve different doses, blends of the drug dry powder and lactose, containing different concentrations of the PDE4 inhibitor compound or salt of the invention (drug), are prepared. […]

[4] = Gravimetric vapour sorption / moisture uptake of solid forms; assay type: physicochemical
From the text: In addition, water is believed to be readily lost from the Form 2 hydrate (a) on heating to only slightly above room temperature and/or (b) on reduction in the relative humidity (R^H) (e.g. water appears to be lost from the Form 2 hydrate when the R^H is reduced to 0% R^H).

COPD patients [5] = settings: cited from earlier work
COPD patients [6] = settings: cited from earlier work; remark: listed apart in the source
[7] = test system: humans with histories of allergic rhinitis; settings: orally 500 ug once daily for 9 days, intranasal allergen provocation (pollen extracts); cited from earlier work

## COc1ccc(C2CNC(=O)NC2)cc1O[C@H]1C[C@@H]2CC[C@H]1C2 [CP80,633]
[1]; atopic dermatitis patients, 0.5% ointment, twice daily topical application
  inflammatory parameters: reductions of inflammatory parameters

## CCc1nc2c(cnn2CC)c(NC2CCOCC2)c1CNC(=O)c1ccc(NC(=O)CCCCCCCN(C)CCO)cc1 [Example 1A2, N-{[1,6-diethyl-4-(tetrahydro-2H-pyran-4-ylamino)-1H-pyrazolo[3,4-b]pyridin-5-yl]methyl}-4-({8-[(2-hydroxyethyl)(methyl)amino]octanoyl}amino)benzamide monohydrochloride]
[2]; rat, i.n., micronised, aqueous solution in 0.2% Tween 80 in PBS, about 30 minutes prior to LPS challenge
  estimated ED50 for inhibition of LPS-induced nasal neutrophilia: approximately 4.6 micrograms/kg body weight
[2]; about 1 micrograms/kg
  inhibition (arithmetic mean) of LPS-induced nasal neutrophilia: essentially no inhibition
[2]; about 3 micrograms/kg
  inhibition (arithmetic mean) of LPS-induced nasal neutrophilia: small and non-statistically-significant inhibition
[2]; about 10 micrograms/kg
  inhibition (arithmetic mean) of LPS-induced nasal neutrophilia: about 62%
[2]; about 100 micrograms/kg
  inhibition (arithmetic mean) of LPS-induced nasal neutrophilia: about 79%
[3]; about 10 micrograms/kg
  arithmetic mean inhibition of LPS-induced pulmonary neutrophilia: about 29%
[3]; about 30 micrograms/kg
  arithmetic mean inhibition of LPS-induced pulmonary neutrophilia: about 44%
[3]; about 100 micrograms/kg
  arithmetic mean inhibition of LPS-induced pulmonary neutrophilia: about 39%
[3]; about 100 micrograms/kg, about 4 hours prior to LPS
  inhibition of LPS-induced pulmonary neutrophilia: about 60%
[3]; about 300 micrograms/kg
  arithmetic mean inhibition of LPS-induced pulmonary neutrophilia: about 55%

## CCc1nc2c(cnn2CC)c(NC2CCOCC2)c1CNC(=O)c1ccc(NC(=O)CCCCCCCN(C)CCO)cc1 [N-{[1,6-Diethyl-4-(tetrahydro-2H-pyran-4-ylamino)-1H-pyrazolo[3,4-b]pyridin-5-yl]methyl}-4-({8-[(2-hydroxyethyl)(methyl)amino]octanoyl}amino)benzamide monohydrochloride]
[4]; 25° C., RH increased from 30% to 75%
  moisture uptake, % weight gain: about 0.5%

## CCc1nc2c(cnn2CC)c(NC2CCOCC2)c1CNC(=O)c1ccc(NC(=O)CCCCCCCN(C)CCO)cc1 [N-{[1,6-diethyl-4-(tetrahydro-2H-pyran-4-ylamino)-1H-pyrazolo[3,4-b]pyridin-5-yl]methyl}-4-({8-[(2-hydroxyethyl)(methyl)amino]octanoyl}amino)benzamide monohydrochloride]
[4]; compared with Form 1 anhydrate
  propensity to take up water as relative humidity increases: greater propensity to take up water than the crystalline monohydrochloride Form 1 anhydrate

## COc1ccc([C@]2(C#N)CC[C@@H](C(=O)O)CC2)cc1OC1CCCC1 [cilomilast]
COPD patients [5]
  antiinflammatory effects: appears to have antiinflammatory effects
COPD patients [6]; 15 mg orally twice daily
  forced expiratory volume in 1 s (FEV1): appears to improve

## Nc1nc2c([nH]1)c(=O)n(CC1CC1)c(=O)n2CC1CC1 [cipamfylline]
[1]; 0.15% cream, versus vehicle and hydrocortisone 17-butyrate (0.1%) cream
  efficacy in the treatment of atopic dermatitis patients: significantly more effective than vehicle, but significantly less effective than hydrocortisone 17-butyrate (0.1%) cream

## O=C(Nc1c(Cl)cncc1Cl)c1ccc(OC(F)F)c(OCC2CC2)c1 [roflumilast]
[7]
  rhinal airflow during the treatment period (compared to placebo): effective in improving rhinal airflow
COPD patients [6]
  FEV1: small improvements
